According to patent US10251871B2, “Compositions and methods for treatment of edema” (Memorial Sloan Kettering Cancer Center, priority 2015, dated 2019):

Experiments:
[1] = system: mouse tail model of lymphedema; experiment: Mouse tail model of lymphedema (tail volume, histology, immunostaining, lymphoscintigraphy, NIR imaging, PCR, ELISA); assay type: in vivo, C57BL/6J mice
[2] = Tacrolimus blood level by mass spectrometry; assay type: in vivo, mice
Description: Blood levels of tacrolimus were measured using mass spectrometry in a modification of a previously reported method. Donaldson et al., Meth. Mol. Biol. 603:479-487 (2010). Briefly, whole blood was collected in sodium EDTA-coated tubes (Terumo, Shibuya, Japan) and then analyzed using a Thermo Scientific Aria TLX-2 turbulent flow chromatograph (TFC) coupled to a TSQ Quantum Ultra triple quadrupole mass spectrometer (Thermo Scientific, Franklin, Mass.). The TurboFlow column used was a Cyclone P-50×0.5 mm while the analytical column was a Hypersil Gold C-18 column, 3×50 mm. To whole blood (50 μL) was added 200 μL of 0.2 mM ZnSO4 containing ascomycin as an internal standard. Following a 30 minute incubation and centrifugation, 50 μL of the supernatant was injected into the TFC system. The analytes were eluted through the column (0.75 mL min^−1) with a gradient of water and methanol solutions containing 10 mM ammonium formate and 0.1% formic acid. The analytical run time was 4.5 minutes. The between-day imprecision of the assay was determined at three concentrations over a period of 10 days. At concentrations of 3.3, 12.6 and 31.9 ng mL^−1 the coefficients of variation were of 9.8, 7.0 and 7.8%, respectively. The assay has a linear range from 0 to 40 ng mL^−1.

[3] = system: ear skin lymphatic vessels (LYVE-1+); experiment: Ear punch wound model of cutaneous lymphangiogenesis; assay type: in vivo, mice; conditions: topical tacrolimus for 4 weeks, vs control ointment
Text: We also studied lymphangiogenesis during wound healing using an ear punch wound model and applying topical tacrolimus or control ointment for 4 weeks. […] To test the possibility of direct lymphangiogenic effects of tacrolimus, we applied tacrolimus to unwounded mouse ears for 4 weeks, and then performed whole mount confocal imaging of lymphatic vessels. We observed no increase in lymphangiogenesis in this uninjured, non-inflamed setting (FIG. 16). […] A corneal lymphangiogenesis assay was performed as previously reported. Cursiefen et al., Cornea 25:443-447 (2006). Briefly, 10-0 nylon sutures (Ethicon, Cincinnati, Ohio) were placed in the cornea at […]. Beginning immediately after suture placement, animals were treated with systemic tacrolimus or vehicle control daily for two weeks, followed by analysis using confocal microscopy (Leica Microsystems, Weitziar, Germany). […] Cutaneous lymphangiogenesis was assessed using an ear punch wound model as previously reported. […] Tile-scan images were obtained using a confocal microscope (Leica Microsystems, Weitziar, Germany) and skin within 400 μm of the wound edge was analyzed using Metamorph software (Molecular Devices, Sunnyvale, Calif.). Standardized (200 μm×200 μm) fields were analyzed for the number of branch points present per unit area by two blinded reviewers.

[4] = topical 0.1% tacrolimus twice daily, early treatment (from 2 weeks after surgery for 4 weeks), vs vehicle control
[5] = topical 0.1% tacrolimus twice daily, late treatment (from 6 weeks after surgery for 3 weeks), vs vehicle control
[6] = topical 0.1% tacrolimus, early and late treatment, vs control
[7] = topical 0.1% tacrolimus, early treatment, qPCR 6 weeks after injury, vs control
[8] = topical 0.1% tacrolimus, early treatment, vs control
[9] = topical 0.1% tacrolimus, late treatment, vs control

Compound: C=CC[C@@H]1/C=C(\C)C[C@H](C)C[C@H](OC)[C@H]2O[C@@](O)(C(=O)C(=O)N3CCCC[C@H]3C(=O)O[C@H](/C(C)=C/[C@@H]3CC[C@@H](O)[C@H](OC)C3)[C@H](C)[C@@H](O)CC1=O)[C@H](C)C[C@@H]2OC [tacrolimus]
- decrease in soft tissue thickness [1, 4]: ~50%
- decrease in tail volume [1, 4]: 95%
- soft tissue thickness [1, 5]: highly effective in decreasing
- tail volume [1, 5]: highly effective in decreasing
- Scar index (picrosirius red, ratio of collagen I/III) [1, 6]: markedly decreased
- cellular expression of phosphorylated SMAD3 (pSMAD-3) [1, 6]: markedly decreased
- dermal and subcutaneous type I collagen deposition [1, 6]: markedly decreased
- expression of TGF-β1 (immunofluorescence) [1, 6]: markedly decreased
- NIR (ICG) imaging: transport across the tail wound ([1]; topical 0.1% tacrolimus, early treatment, 6 weeks after lymphatic ligation): rapid transport of interstitial fluid proximally across the tail wound
- IFN-γ mRNA expression in tail tissue [1, 7]: significant decrease
- TGF-β1 mRNA expression in tail tissue [1, 7]: significant decrease
- VEGF-C mRNA expression in tail tissue [1, 7]: no differences
- increase in decay adjusted 99mTc uptake of the sacral lymph nodes [1, 8]: more than 6 fold
- increase in newly formed lymphatic vessels (LYVE-1) bridging the zone of lymphatic injury [1, 8]: 189%
- reduction of CD45+ cells (leukocytes) infiltrating dermis and subcutaneous fat [1, 8]: 56%
- reduction of IFN-γ-producing cells [1, 8]: 54%
- reduction of infiltrating CD3+ cells [1, 8]: 53%
- reduction of infiltrating CD4+ cells [1, 8]: 78%
- reduction of soft tissue infiltration of macrophages (F4/80+ cells) [1, 8]: 86%
- increase in newly formed lymphatic vessels (LYVE-1) bridging the zone of lymphatic injury [1, 9]: 106%
- reduction of CD45+ cells (leukocytes) infiltrating dermis and subcutaneous fat [1, 9]: 49%
- reduction of IFN-γ-producing cells [1, 9]: 57%
- reduction of infiltrating CD3+ cells [1, 9]: 49%
- reduction of infiltrating CD4+ cells [1, 9]: 71%
- reduction of soft tissue infiltration of macrophages (F4/80+ cells) [1, 9]: 73%
- increase in 99mTc nodal uptake ([1]; topical 0.1% tacrolimus, late treatment, vs control, did not reach statistical significance): 2 fold
- whole blood tacrolimus levels ([2]; systemic tacrolimus 4 mg kg^−1 IP daily): immunosuppressive concentrations
- whole blood tacrolimus level (systemic absorption), mean value ([2]; topical tacrolimus): 1.06 ng/mL
- lymphatic vessel branching in ear skin adjacent to the wound [3]: significantly increased
- lymphatic vessel density in ear skin adjacent to the wound [3]: significantly increased
